Source: ChEMBL document CHEMBL1138196, “Antitrypanosomal activity of 5'-deoxy-5'-(iodomethylene)adenosine and related 6-N-cyclopropyladenosine analogues” (J Med Chem, 2006)
Converted amounts (≈) assume the structure as drawn.

Test system: Trypanosoma brucei
Assay: Antitrypanosomal activity against Trypanosoma brucei
Assay type: functional, organism-based

Structure (SMILES)	IC50
Nc1ncnc2c1ncn2[C@@H]1O[C@H](/C=C\I)[C@@H](O)[C@H]1O	45 µg/mL (≈ 116 µM)
Nc1ncnc2c1ncn2[C@@H]1O[C@H](/C=C/I)[C@@H](O)[C@H]1O	9 µg/mL (≈ 23.1 µM)
Nc1ncnc2c1ncn2[C@@H]1O[C@](S)(CO)[C@@H](O)[C@H]1O	14 µg/mL (≈ 46.8 µM)
Nc1ncnc2c1ncn2[C@@H]1O[C@H](CSCCO)[C@@H](O)[C@H]1O	0.16 µg/mL (≈ 0.489 µM)
CN(C/C=C\CN)C[C@H]1O[C@@H](n2cnc3c(N)ncnc32)[C@H](O)[C@@H]1O	0.02 µg/mL (≈ 0.0572 µM)
O[C@@H]1[C@H](O)[C@@H](/C=C/I)O[C@H]1n1cnc2c(NC3CC3)ncnc21	12 µg/mL (≈ 28 µM)
O[C@@H]1[C@H](O)[C@@H](/C=C/F)O[C@H]1n1cnc2c(NC3CC3)ncnc21	19 µg/mL (≈ 59.1 µM)
N#C/N=C/[C@H]1O[C@@H](n2cnc3c(NC4CC4)ncnc32)[C@H](O)[C@@H]1O	19 µg/mL (≈ 57.7 µM)
CC(=O)OCCSC[C@H]1O[C@@H](n2cnc3c(N)ncnc32)[C@H](OC(C)=O)[C@@H]1OC(C)=O	0.12 µg/mL (≈ 0.265 µM)

Test system: Vesicular stomatitis virus
Assay: Antiviral activity against VSV in BHK cells
Assay type: functional, organism-based

Structure (SMILES)	IC50
Nc1ncnc2c1ncn2[C@@H]1O[C@H](/C=C/I)[C@@H](O)[C@H]1O	2 µg/mL (≈ 5.14 µM)
